As usually defined, the Ki is a measure of affinity in units of concentration, obtained from inhibition or displacement. A higher Ki goes with lower affinity.

This experiment deals with GABAa receptor. The experiment is described as follows: GABAa receptor binding, displacement of 3H-RO15-1788 [3H-Flumazenil]. The note with it: rat cortical tissue, 0.5 nM 3H-RO15-1788, 30 min at 4° C., pH 7.4. As for the experimental part:
The pharmaceutical utility of compounds of this invention are indicated by the following assay for GABAa receptor activity.
Assays are carded out as described in Thomas and Tallman (J. Bio. Chem. 156: 9838-9842, J. Neurosci. 3: 433-440, 1983). Rat conical tissue is dissected and homogenized in 25 volumes (w/v) of 0.05M Tris HCl buffer (pH 7.4 at 4° C.). The tissue homogenate is centrifuged in the cold (4°) at 20,000×g for 20'. The supernatant is decanted and the pellet is rehomogenized in the same volume of buffer and again centrifuged at 20,000×g. The supernatant is decanted and the pellet is frozen at -20° C. overnight. The pellet is then thawed and rehomogenized in 25 volume (original wt/vol) of buffer and the procedure is carded out twice. The pellet is finally resuspended in 50 volumes (w/vol of 0.05M Tris HCl buffer (pH 7.4 at […]).
Incubations contain […] of tissue homogenate, […] of radioligand 0.5 nM (3H-RO15-1788 [^3 H-Flumazenil] specific activity 80 Ci/mmol), drug or blocker and buffer to a total volume of […]. Incubations are carried for 30 min at 4° C. then are rapidly filtered through GFB filters to separate free and bound ligand. Filters are washed twice with fresh 0.05M Tris HCl buffer (pH 7.4 at 4° C.) and counted in a liquid scintillation counter. 1.0 mM diazepam is added to some tubes to determine nonspecific binding. Data are collected in triplicate determinations, averaged and % inhibition of total specific binding is calculated. Total Specific Binding=Total-Nonspecific. In some cases, the amounts of unlabeled drugs is varied and total displacement curves of binding are carded out. Data are converted to a form for the calculation of IC50 and Hill Coefficient (nH).
On the technique in general: Displacement assays read how much labelled ligand stays bound in the presence of the test substance.
Turning to `O=c1[nH]c2c(n1-c1nc3ccc(F)c(F)c3o1)CCCCC2` [Compound 1], the Ki was found to be 3 nM.
`O=c1[nH]c2c(n1-c1nc3ccc(F)cc3o1)CCCCC2` [Compound 2] yielded a Ki of 4.6 nM.
Take `O=c1[nH]c2cc(F)ccc2n1-c1nc2cccc(F)c2o1` [Compound 3, 3-(2-(7-fluorobenzoxazyl))-6-fluorobenzimidazol-2-(1H)-one]: the affinity, expressed as Ki, was 14 nM.
`O=c1[nH]c2cc(F)ccc2n1-c1nc2ccc(F)cc2o1` [Compound 4, 3-(2-(6-fluorobenzoxazyl))-6-fluorobenzimidazol-2-(1H)-one] showed a Ki of 25 nM.
In turn, `O=c1[nH]c2c(n1-c1nc3ccc(F)c(F)c3o1)CCCC2` [Compound 5] showed a Ki of 21 nM.
For `COc1ccc2oc(-n3c4c([nH]c3=O)CCCC4)nc2c1` [Compound 6], the affinity, expressed as Ki, was 81 nM.

The values are drawn from patent US5637724A (priority 1995, dated 1997).
